According to paper PMC9267128, “New 2-[(4-Amino-6-N-substituted-1,3,5-triazin-2-yl)methylthio]-N-(imidazolidin-2-ylidene)-4-chloro-5-methylbenzenesulfonamide Derivatives, Design, Synthesis and Anticancer Evaluation” (International Journal of Molecular Sciences, 2022):

What was measured:
[1] = system: HeLa (cervical cancer); assay: MTT cell viability assay, HeLa; format: cell-based, human; details: for IC50: Homo sapiens, HeLa, MTT assay, 72 h of incubation; for Selectivity Index (SI) HeLa: IC50 value toward HaCaT cells/IC50 value toward HeLa
How it was run: (§1)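 HCT-116 and HeLa cells in DMEM/10% FBS exposed 72 h to compounds over 1–100 µM. Viability by MTT (0.5 mg/mL, 2 h, 37 °C), formazan dissolved in DMSO and read at 550 nm; mean ± SD of at least three independent experiments.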

[2] = system: HCT-116 (colon cancer); assay: MTT cell viability assay, HCT-116; format: cell-based, human; details: for IC50: MTT assay, 72 h of incubation; for Selectivity Index (SI) HCT-116: IC50 value toward HaCaT cells/IC50 value toward HCT-116
How it was run: as §1

[3] = system: HaCaT (human keratinocyte cell line); assay: MTT cell viability assay, non-cancerous HaCaT; format: cell-based; details: 72 h of incubation, non-cancerous keratinocytes
How it was run: (§2)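 Cells in DMEM with 10% FBS, 3 × 10^3 per well, exposed to compounds at 1–100 µM for 72 h at 37 °C. MTT at 0.5 mg/mL for 2 h, formazan dissolved in DMSO and read at 550 nm. Mean ± SD of at least three independent experiments, each in triplicate.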

[4] = system: MCF-7 (breast cancer); assay: MTT cell viability assay, MCF-7; format: cell-based, human; details: for IC50: MTT assay, 72 h of incubation; for Selectivity Index (SI) MCF-7: IC50 value toward HaCaT cells/IC50 value toward MCF-7
How it was run: as §2

[5] = system: SKOV3 (ovarian carcinoma cell line); assay: MTT assay, mutant p53 ovarian cancer cells SKOV-3; format: cell-based; details: 72 h of incubation
Procedure: (§3) Thus, the ability of the selected compounds to exert cytotoxic activity toward cell lines harboring mutant p53 was examined. Compounds displaying a high selectivity index (Table 6) were selected for the analysis of their activity toward ovarian and breast cancer cells with wild-type p53 (A2780, MCF-7) and mutant p53 (SKOV-3, T47D).
(§4) Cell viability was examined using the MTT [3-(4,5-dimethylthiazol-2-yl)-2,5-diphenyltetrazolium bromide] assay. Cells were seeded in 96-well plates at a density of 3 × 10^3 cells/well and treated for 72 h with the tested compounds in the concentration range of 1–100 µM. Then, MTT (0.5 mg/mL) was added to the medium and cells were further incubated for 2 h at 37 °C. In the next stage, cells were lysed with DMSO and the absorbance of the formazan solution was measured at 550 nm with a plate reader (1420 multilabel counter, Victor, Jügesheim, Germany). The experiment was performed in triplicate. Values are expressed as the mean ± SD of at least three independent experiments. Cisplatin was used as a positive control.
(§5) Compounds 48, 62, 134, 138 and 140 were further examined toward MCF7 (breast cancer cell line, ATCC, HTB-22), T47D (breast cancer cell line, DSMZ ACC 739), A2780 (ovarian carcinoma cell line, ECACC, 93112519), and SKOV3 (ovarian carcinoma cell line, ATCC, HTB-77) cells. Cells were grown in Dulbecco’s Modified Eagle Medium (DMEM) supplemented with 10% fetal bovine serum (Thermo Fisher Scientific).

[6] = system: T47D (breast cancer cell line); assay: MTT assay, mutant p53 breast cancer cells T47D; format: cell-based; details: 72 h of incubation
Procedure: as §3, §4, §5

[7] = system: MCF7 (breast cancer cell line, ATCC, HTB-22); assay: MTT assay, wild-type p53 breast cancer cells MCF-7 (Table 11); format: cell-based, human; details: 72 h of incubation, wild-type p53, second determination
Procedure: as §3, §4, §5

[8] = system: A2780 (ovarian carcinoma cell line); assay: MTT assay, wild-type p53 ovarian cancer cells A2780; format: cell-based; details: 72 h of incubation
Procedure: as §3, §4, §5

Row | SMILES | IC50 [1] [µM] | IC50 ([2]; Homo sapiens, HCT-116, 72 h) [µM] | IC50 ([4]; Homo sapiens, MCF7, 72 h) [µM] | IC50 ([3]; Homo sapiens, HaCaT, 72 h) [µM] | other results
1 | Cc1cc(S(=O)(=O)N=C2NCCN2Cc2ccc(C(F)(F)F)cc2)c(SCc2nc(N)nc(N3CCN(c4ccccc4F)CC3)n2)cc1Cl [Compound 133] | 14 ± 1 | 8 ± 0.3 | 16 ± 0.5 | 25 ± 1 | –
2 | Cc1cc(S(=O)(=O)N=C2NCCN2Cc2ccc(C(F)(F)F)cc2)c(SCc2nc(N)nc(N3CCN(c4cccc(C(F)(F)F)c4)CC3)n2)cc1Cl [Compound 135] | 7 ± 0.2 | 5 ± 0.2 | 6.5 ± 0.3 | 19 ± 1 | –
3 | Cc1cc(S(=O)(=O)N=C2NCCN2Cc2ccc(C(F)(F)F)cc2)c(SCc2nc(N)nc(N3CCN(c4ccc(Cl)cc4)CC3)n2)cc1Cl [Compound 136] | 10 ± 0.4 | 5 ± 0.1 | 6 ± 0.3 | 21 ± 1 | –
4 | Cc1cc(S(=O)(=O)N=C2NCCN2Cc2ccc(C(F)(F)F)cc2)c(SCc2nc(N)nc(N3CCN(c4cccc(Cl)c4)CC3)n2)cc1Cl [Compound 137] | 12 ± 0.6 | 6 ± 0.2 | 7 ± 0.4 | 21 ± 1 | –
5 | COc1ccc(N2CCN(c3nc(N)nc(CSc4cc(Cl)c(C)cc4S(=O)(=O)N=C4NCCN4Cc4ccc(C(F)(F)F)cc4)n3)CC2)cc1 [Compound 139] | 12 ± 1 | 6 ± 0.1 | 13 ± 1 | 24 ± 1 | –
6 | Cc1cc(S(=O)(=O)N=C2NCCN2Cc2ccc(C(F)(F)F)cc2)c(SCc2nc(N)nc(N3CCN(C(c4ccccc4)c4ccccc4)CC3)n2)cc1Cl [Compound 141] | 45 ± 2 | 7.5 ± 0.2 | 9.5 ± 0.5 | 180 ± 9 | –
7 | Cc1cc(S(=O)(=O)N=C2NCCN2Cc2ccc(C(F)(F)F)cc2)c(SCc2nc(N)nc(N3CCC(Cc4ccccc4)CC3)n2)cc1Cl [Compound 142] | 14 ± 0.2 | 4.6 ± 0.1 | 6.5 ± 0.3 | 29 ± 1 | –
8 | Cc1cc(S(=O)(=O)N=C2NCCN2Cc2ccc(C(F)(F)F)cc2)c(SCc2nc(N)nc(N3CC=C(c4ccc(F)cc4)CC3)n2)cc1Cl [Compound 143] | 7 ± 0.4 | 4.6 ± 0.1 | 6 ± 0.3 | 19 ± 1 | –
9 | Cc1cc(S(=O)(=O)N=C2NCCN2Cc2cc(C(F)(F)F)cc(C(F)(F)F)c2)c(SCc2nc(N)nc(N3CCc4ccccc43)n2)cc1Cl [Compound 144] | 13 ± 0.2 | 8 ± 0.5 | 8 ± 0.2 | 27 ± 1 | –
10 | Cc1cc(S(=O)(=O)N=C2NCCN2Cc2cc(C(F)(F)F)cc(C(F)(F)F)c2)c(SCc2nc(N)nc(N3CCCc4ccccc43)n2)cc1Cl [Compound 145] | 16.5 ± 1 | 13 ± 0.5 | 13 ± 0.8 | 36 ± 1 | –
11 | Cc1cc(S(=O)(=O)N=C2NCCN2Cc2cc(C(F)(F)F)cc(C(F)(F)F)c2)c(SCc2nc(N)nc(Nc3ccccc3)n2)cc1Cl [Compound 146] | 15 ± 1 | 11.5 ± 0.5 | 12.5 ± 0.6 | 32 ± 1 | –
12 | Cc1cc(S(=O)(=O)N=C2NCCN2Cc2cc(C(F)(F)F)cc(C(F)(F)F)c2)c(SCc2nc(N)nc(Nc3ccc(C(F)(F)F)cc3)n2)cc1Cl [Compound 147] | 15 ± 1 | 6.5 ± 0.3 | 8 ± 0.2 | 28 ± 1 | –
13 | Cc1cc(S(=O)(=O)N=C2NCCN2Cc2cc(C(F)(F)F)cc(C(F)(F)F)c2)c(SCc2nc(N)nc(NCc3ccccc3)n2)cc1Cl [Compound 148] | 15 ± 1 | 9.5 ± 0.2 | 8.5 ± 0.5 | 29 ± 1 | –
14 | N.N.[Cl][Pt][Cl] [cisplatin, reference compound] | – | – | – | – | IC50 [5]: 71 ± 0.1 µM; IC50 [6]: 3.1 ± 0.1 µM; IC50 [7]: 3000 ± 100 nM; IC50 [3]: 7.7 ± 0.2 µM; IC50 [8]: 1400 ± 100 nM; IC50 [4]: 3 ± 0.1 µM

More lines, main results first:

Row | IC50 [1] [µM] | IC50 ([2]; Homo sapiens, HCT-116, 72 h) [µM] | IC50 ([4]; Homo sapiens, MCF7, 72 h) [µM] | SMILES | IC50 ([3]; Homo sapiens, HaCaT, 72 h) [µM] | other results
15 | 18 ± 1 | 11.5 ± 0.6 | 11 ± 0.5 | Cc1cc(S(=O)(=O)N=C2NCCN2Cc2cc(C(F)(F)F)cc(C(F)(F)F)c2)c(SCc2nc(N)nc(N(C)c3ccc(Cl)cc3)n2)cc1Cl [Compound 149] | 33 ± 1 | –
16 | 11 ± 0.3 | < 6 | 4.5 ± 0.2 | Cc1cc(S(=O)(=O)N=C2NCCN2Cc2cc(C(F)(F)F)cc(C(F)(F)F)c2)c(SCc2nc(N)nc(N3CCN(c4ccccc4)CC3)n2)cc1Cl [Compound 150] | 23 ± 1 | Selectivity Index (SI) HeLa [1]: 2.0; Selectivity Index (SI) HCT-116 [2]: 6.4; IC50 [2]: 3.6 ± 0.2 µM; Selectivity Index (SI) MCF-7 [4]: 5.1
17 | 15 ± 1 | 6 ± 0.1 | 6 ± 0.1 | Cc1cc(S(=O)(=O)N=C2NCCN2Cc2cc(C(F)(F)F)cc(C(F)(F)F)c2)c(SCc2nc(N)nc(N3CCN(c4ccc(F)cc4)CC3)n2)cc1Cl [Compound 151] | 28 ± 1 | –
18 | 15.5 ± 1 | 6.5 ± 0.3 | 6.5 ± 0.3 | Cc1cc(S(=O)(=O)N=C2NCCN2Cc2cc(C(F)(F)F)cc(C(F)(F)F)c2)c(SCc2nc(N)nc(N3CCN(c4ccccc4F)CC3)n2)cc1Cl [Compound 152] | 29 ± 1 | –
19 | 9 ± 0.5 | 6 ± 0.3 | 8 ± 0.2 | Cc1cc(S(=O)(=O)N=C2NCCN2Cc2cc(C(F)(F)F)cc(C(F)(F)F)c2)c(SCc2nc(N)nc(N3CCN(c4cccc(C(F)(F)F)c4)CC3)n2)cc1Cl [Compound 153] | 19 ± 0.5 | –
20 | 12 ± 1 | 5 ± 0.1 | 6.5 ± 0.2 | Cc1cc(S(=O)(=O)N=C2NCCN2Cc2cc(C(F)(F)F)cc(C(F)(F)F)c2)c(SCc2nc(N)nc(N3CCN(c4ccc(Cl)cc4)CC3)n2)cc1Cl [Compound 154] | 26 ± 1 | –
21 | 10 ± 0.1 | 5 ± 0.1 | 6 ± 0.1 | Cc1cc(S(=O)(=O)N=C2NCCN2Cc2cc(C(F)(F)F)cc(C(F)(F)F)c2)c(SCc2nc(N)nc(N3CCN(c4ccc(Cl)c(Cl)c4)CC3)n2)cc1Cl [Compound 155] | 19 ± 1 | –
22 | 5.5 ± 0.2 | 4.8 ± 0.1 | 7.5 ± 0.4 | Cc1cc(S(=O)(=O)N=C2NCCN2Cc2cc(C(F)(F)F)cc(C(F)(F)F)c2)c(SCc2nc(N)nc(N3CCN(Cc4ccccc4)CC3)n2)cc1Cl [Compound 156] | 17 ± 1 | –
23 | 13 ± 0.5 | 5 ± 0.1 | 6 ± 0.3 | Cc1cc(S(=O)(=O)N=C2NCCN2Cc2cc(C(F)(F)F)cc(C(F)(F)F)c2)c(SCc2nc(N)nc(N3CCC(Cc4ccccc4)CC3)n2)cc1Cl [Compound 157] | 23 ± 1 | Selectivity Index (SI) HeLa [1]: 1.7; Selectivity Index (SI) HCT-116 [2]: 4.6; Selectivity Index (SI) MCF-7 [4]: 3.8
24 | 6 ± 0.3 | 5 ± 0.3 | 8 ± 0.4 | Cc1cc(S(=O)(=O)N=C2NCCCN2Cc2ccc(C(F)(F)F)cc2)c(SCc2nc(N)nc(N3CCCc4ccccc43)n2)cc1Cl [Compound 158] | 17 ± 1 | –
25 | 15.5 ± 0.5 | 9 ± 0.5 | 10 ± 0.3 | Cc1cc(S(=O)(=O)N=C2NCCCN2Cc2ccc(C(F)(F)F)cc2)c(SCc2nc(N)nc(N3CCN(c4ccccc4)CC3)n2)cc1Cl [Compound 159] | 29 ± 1 | –
26 | 8.5 ± 0.3 | 10.5 ± 0.4 | 12 ± 0.5 | Cc1cc(S(=O)(=O)N=C2NCCCN2Cc2ccc(C(F)(F)F)cc2)c(SCc2nc(N)nc(N3CCN(c4cccc(C(F)(F)F)c4)CC3)n2)cc1Cl [Compound 160] | 23 ± 1 | –
27 | 14 ± 0.5 | 6.5 ± 0.1 | 6.5 ± 0.2 | Cc1cc(S(=O)(=O)N=C2NCCCN2Cc2ccc(C(F)(F)F)cc2)c(SCc2nc(N)nc(N3CCN(c4ccc(Cl)cc4)CC3)n2)cc1Cl [Compound 161] | 27 ± 1 | –
28 | 12.5 ± 0.5 | < 6 | 6 ± 0.2 | Cc1cc(S(=O)(=O)N=C2NCCCN2Cc2ccc(C(F)(F)F)cc2)c(SCc2nc(N)nc(N3CCN(Cc4ccccc4)CC3)n2)cc1Cl [Compound 162] | 25 ± 0.7 | Selectivity Index (SI) HeLa [1]: 2.0; Selectivity Index (SI) HCT-116 [2]: 4.5; IC50 [2]: 5.5 ± 0.3 µM; Selectivity Index (SI) MCF-7 [4]: 4.1
